The record followed here is ChEMBL document CHEMBL5715954, “Silencing c-Myc translation as a therapeutic strategy through targeting PI3Kδ and CK1ε in hematological malignancies” (Blood, 2017).

Common to all, as to design: scale not given: the % may be the effect or the level left
In assay [1] the target is RAC-beta serine/threonine-protein kinase (Homo sapiens) (UniProt P31751). Put plainly: Inhibition of human AKT2 assessed as enzyme activity at 1 uM using KGSGSGRPRTSSFAEG as substrate preincubated for 20 mins followed by [gamma-33P]-ATP addition and measured after 120 mins by radiometric Hot-SpotSM Kinase assay relative to control.
Assay [2] addresses Serine/threonine-protein kinase MRCK gamma (Homo sapiens) (UniProt Q6DT37). Put plainly: Inhibition of human DMPK2 assessed as enzyme activity at 1 uM using KKRPQRRYSNVF as substrate preincubated for 20 mins followed by [gamma-33P]-ATP addition and measured after 120 mins by radiometric Hot-SpotSM Kinase assay relative to control.
Assay [3] concerns the target Epithelial discoidin domain-containing receptor 1 (Homo sapiens) (UniProt Q08345). Nature of the assay: Inhibition of human DDR1 assessed as enzyme activity at 1 uM using KKSRGDYMTMQIG as substrate preincubated for 20 mins followed by [gamma-33P]-ATP addition and measured after 120 mins by radiometric Hot-SpotSM Kinase assay relative to control.
Assay [4] addresses Mitogen-activated protein kinase 11 (Homo sapiens) (UniProt Q15759). Nature of the assay: Inhibition of human P38b assessed as enzyme activity at 1 uM using myelin basic protein as substrate preincubated for 20 mins followed by [gamma-33P]-ATP addition and measured after 120 mins by radiometric Hot-SpotSM Kinase assay relative to control.
In assay [5] the target is T1, Mitogen-activated protein kinase 13 (Homo sapiens) (UniProt O15264).
T1 sequence (whole entry): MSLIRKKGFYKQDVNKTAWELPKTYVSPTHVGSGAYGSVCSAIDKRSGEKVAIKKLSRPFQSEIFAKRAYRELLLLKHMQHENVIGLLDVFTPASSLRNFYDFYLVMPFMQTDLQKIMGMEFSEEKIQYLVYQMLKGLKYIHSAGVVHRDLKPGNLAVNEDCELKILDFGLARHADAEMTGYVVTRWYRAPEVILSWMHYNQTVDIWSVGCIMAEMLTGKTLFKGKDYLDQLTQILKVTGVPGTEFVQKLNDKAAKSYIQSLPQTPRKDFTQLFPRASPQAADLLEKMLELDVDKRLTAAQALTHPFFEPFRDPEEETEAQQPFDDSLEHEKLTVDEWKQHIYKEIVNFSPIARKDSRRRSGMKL
Put plainly: Inhibition of human P38d assessed as enzyme activity at 1 uM using myelin basic protein as substrate preincubated for 20 mins followed by [gamma-33P]-ATP addition and measured after 120 mins by radiometric Hot-SpotSM Kinase assay relative to control.

For assay [6], the target named is T2, Bone morphogenetic protein receptor type-2 (Homo sapiens) (UniProt Q13873).
T2 sequence (whole entry): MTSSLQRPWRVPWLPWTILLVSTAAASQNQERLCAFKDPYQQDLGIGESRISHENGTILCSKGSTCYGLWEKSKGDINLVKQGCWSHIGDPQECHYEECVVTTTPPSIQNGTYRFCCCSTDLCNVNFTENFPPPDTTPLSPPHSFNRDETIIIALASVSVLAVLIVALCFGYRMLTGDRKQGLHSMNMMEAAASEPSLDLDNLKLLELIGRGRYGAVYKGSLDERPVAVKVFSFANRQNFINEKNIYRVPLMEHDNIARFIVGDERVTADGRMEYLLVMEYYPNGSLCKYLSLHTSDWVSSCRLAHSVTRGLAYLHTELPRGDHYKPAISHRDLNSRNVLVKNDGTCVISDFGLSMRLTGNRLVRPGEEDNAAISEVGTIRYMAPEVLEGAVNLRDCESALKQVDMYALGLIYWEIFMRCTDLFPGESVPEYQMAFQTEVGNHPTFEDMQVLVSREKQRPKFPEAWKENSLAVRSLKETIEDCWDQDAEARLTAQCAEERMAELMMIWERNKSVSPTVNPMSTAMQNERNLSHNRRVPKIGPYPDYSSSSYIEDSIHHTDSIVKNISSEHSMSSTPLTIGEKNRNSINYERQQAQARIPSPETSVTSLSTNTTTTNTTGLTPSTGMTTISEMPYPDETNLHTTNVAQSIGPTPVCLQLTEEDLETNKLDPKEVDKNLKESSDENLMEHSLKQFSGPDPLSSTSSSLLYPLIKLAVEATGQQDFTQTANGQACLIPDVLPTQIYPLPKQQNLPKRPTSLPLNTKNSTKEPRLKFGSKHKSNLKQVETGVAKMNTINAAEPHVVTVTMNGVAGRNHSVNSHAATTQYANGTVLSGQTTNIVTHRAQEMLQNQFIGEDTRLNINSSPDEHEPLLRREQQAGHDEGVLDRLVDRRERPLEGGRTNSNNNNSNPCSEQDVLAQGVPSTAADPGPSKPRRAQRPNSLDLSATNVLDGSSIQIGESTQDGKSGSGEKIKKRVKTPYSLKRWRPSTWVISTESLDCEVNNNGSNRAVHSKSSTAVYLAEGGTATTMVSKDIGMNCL
Nature of the assay: Inhibition of human BMPR2 assessed as enzyme activity at 1 uM using myelin basic protein as substrate preincubated for 20 mins followed by [gamma-33P]-ATP addition and measured after 120 mins by radiometric Hot-SpotSM Kinase assay relative to control.

Assay [7] concerns the target Casein kinase I isoform epsilon (Homo sapiens, UniProt P49674). Nature of the assay: Inhibition of human CK1epsilon assessed as enzyme activity at 1 uM using KRRRAL[pS]VASLPGL as substrate preincubated for 20 mins followed by [gamma-33P]-ATP addition and measured after 120 mins by radiometric Hot-SpotSM Kinase assay relative to control.
For assay [8], the target named is Calcium/calmodulin-dependent protein kinase type II subunit beta (Homo sapiens) (UniProt Q13554). Nature of the assay: Inhibition of human CAMK2b assessed as enzyme activity at 1 uM using KKALRRQETVDAL as substrate preincubated for 20 mins followed by [gamma-33P]-ATP addition and measured after 120 mins by radiometric Hot-SpotSM Kinase assay relative to control.

Assay [9] has as its target Dual specificity mitogen-activated protein kinase kinase 1 (Homo sapiens) (UniProt Q02750). Put plainly: Inhibition of human MEK1 assessed as enzyme activity at 1 uM using ERK2 (K52R) as substrate preincubated for 20 mins followed by [gamma-33P]-ATP addition and measured after 120 mins by radiometric Hot-SpotSM Kinase assay relative to control.
Assay [10] concerns the target Myosin light chain kinase, smooth muscle (Homo sapiens) (UniProt Q15746). Put plainly: Inhibition of human MLCK assessed as enzyme activity at 1 uM using KKLNRTLSFAEPG as substrate preincubated for 20 mins followed by [gamma-33P]-ATP addition and measured after 120 mins by radiometric Hot-SpotSM Kinase assay relative to control.

Chain of Casein kinase I isoform epsilon (P49674 whole entry, looked up, canonical isoform): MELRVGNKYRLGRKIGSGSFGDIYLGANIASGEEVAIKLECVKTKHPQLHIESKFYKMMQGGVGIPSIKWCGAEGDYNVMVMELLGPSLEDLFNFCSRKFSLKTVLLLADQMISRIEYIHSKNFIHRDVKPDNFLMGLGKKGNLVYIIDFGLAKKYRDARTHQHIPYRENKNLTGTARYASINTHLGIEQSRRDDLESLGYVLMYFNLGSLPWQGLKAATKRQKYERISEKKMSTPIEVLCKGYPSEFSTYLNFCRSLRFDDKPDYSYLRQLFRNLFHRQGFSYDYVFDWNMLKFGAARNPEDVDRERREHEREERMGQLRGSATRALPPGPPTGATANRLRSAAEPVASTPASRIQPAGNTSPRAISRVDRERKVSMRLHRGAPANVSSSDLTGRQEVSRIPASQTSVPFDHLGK
Chain of Epithelial discoidin domain-containing receptor 1 (Homo sapiens) (Q08345 whole entry, the tested form may be a part): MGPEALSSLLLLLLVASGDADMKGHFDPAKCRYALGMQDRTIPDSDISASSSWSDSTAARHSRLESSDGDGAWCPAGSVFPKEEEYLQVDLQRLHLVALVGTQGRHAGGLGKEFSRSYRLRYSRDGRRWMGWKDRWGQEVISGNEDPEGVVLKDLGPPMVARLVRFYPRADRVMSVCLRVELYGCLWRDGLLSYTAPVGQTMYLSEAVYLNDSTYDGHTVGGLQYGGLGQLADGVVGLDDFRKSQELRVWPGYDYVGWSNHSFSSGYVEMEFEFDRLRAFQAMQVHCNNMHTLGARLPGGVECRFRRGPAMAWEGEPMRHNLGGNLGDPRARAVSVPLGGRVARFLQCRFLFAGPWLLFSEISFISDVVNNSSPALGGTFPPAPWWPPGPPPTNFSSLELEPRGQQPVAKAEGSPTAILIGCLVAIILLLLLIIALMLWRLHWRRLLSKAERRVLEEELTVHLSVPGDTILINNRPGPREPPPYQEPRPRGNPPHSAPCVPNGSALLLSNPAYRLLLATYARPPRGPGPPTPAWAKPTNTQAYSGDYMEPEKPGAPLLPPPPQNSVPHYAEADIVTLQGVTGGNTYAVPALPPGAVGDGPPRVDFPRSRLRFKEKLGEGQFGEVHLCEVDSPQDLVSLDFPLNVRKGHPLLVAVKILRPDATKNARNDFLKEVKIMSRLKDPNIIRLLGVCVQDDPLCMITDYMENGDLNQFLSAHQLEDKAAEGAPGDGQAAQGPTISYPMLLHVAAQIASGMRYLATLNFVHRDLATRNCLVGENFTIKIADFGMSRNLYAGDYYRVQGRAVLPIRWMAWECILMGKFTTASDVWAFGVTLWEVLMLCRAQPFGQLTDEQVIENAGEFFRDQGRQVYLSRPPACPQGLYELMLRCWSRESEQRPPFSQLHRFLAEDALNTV
Chain of Calcium/calmodulin-dependent protein kinase type II subunit beta (Homo sapiens) (Q13554 whole entry): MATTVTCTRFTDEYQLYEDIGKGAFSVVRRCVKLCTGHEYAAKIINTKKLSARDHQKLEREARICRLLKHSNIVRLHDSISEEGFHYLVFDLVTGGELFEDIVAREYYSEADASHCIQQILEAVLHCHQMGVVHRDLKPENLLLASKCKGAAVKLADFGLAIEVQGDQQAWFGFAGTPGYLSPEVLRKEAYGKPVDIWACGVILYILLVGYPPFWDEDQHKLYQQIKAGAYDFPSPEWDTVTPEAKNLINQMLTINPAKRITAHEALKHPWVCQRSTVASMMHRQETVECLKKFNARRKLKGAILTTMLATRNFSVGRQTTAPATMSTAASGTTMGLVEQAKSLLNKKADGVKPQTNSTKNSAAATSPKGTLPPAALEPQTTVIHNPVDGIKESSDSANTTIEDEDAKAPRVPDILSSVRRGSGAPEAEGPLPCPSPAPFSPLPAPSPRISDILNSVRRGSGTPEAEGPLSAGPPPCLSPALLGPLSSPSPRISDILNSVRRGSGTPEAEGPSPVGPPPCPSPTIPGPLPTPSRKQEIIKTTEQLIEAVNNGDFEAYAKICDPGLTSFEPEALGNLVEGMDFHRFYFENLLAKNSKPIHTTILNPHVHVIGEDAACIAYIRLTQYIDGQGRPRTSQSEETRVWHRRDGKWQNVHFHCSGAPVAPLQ
Chain of Myosin light chain kinase, smooth muscle (Homo sapiens) (Q15746 whole entry): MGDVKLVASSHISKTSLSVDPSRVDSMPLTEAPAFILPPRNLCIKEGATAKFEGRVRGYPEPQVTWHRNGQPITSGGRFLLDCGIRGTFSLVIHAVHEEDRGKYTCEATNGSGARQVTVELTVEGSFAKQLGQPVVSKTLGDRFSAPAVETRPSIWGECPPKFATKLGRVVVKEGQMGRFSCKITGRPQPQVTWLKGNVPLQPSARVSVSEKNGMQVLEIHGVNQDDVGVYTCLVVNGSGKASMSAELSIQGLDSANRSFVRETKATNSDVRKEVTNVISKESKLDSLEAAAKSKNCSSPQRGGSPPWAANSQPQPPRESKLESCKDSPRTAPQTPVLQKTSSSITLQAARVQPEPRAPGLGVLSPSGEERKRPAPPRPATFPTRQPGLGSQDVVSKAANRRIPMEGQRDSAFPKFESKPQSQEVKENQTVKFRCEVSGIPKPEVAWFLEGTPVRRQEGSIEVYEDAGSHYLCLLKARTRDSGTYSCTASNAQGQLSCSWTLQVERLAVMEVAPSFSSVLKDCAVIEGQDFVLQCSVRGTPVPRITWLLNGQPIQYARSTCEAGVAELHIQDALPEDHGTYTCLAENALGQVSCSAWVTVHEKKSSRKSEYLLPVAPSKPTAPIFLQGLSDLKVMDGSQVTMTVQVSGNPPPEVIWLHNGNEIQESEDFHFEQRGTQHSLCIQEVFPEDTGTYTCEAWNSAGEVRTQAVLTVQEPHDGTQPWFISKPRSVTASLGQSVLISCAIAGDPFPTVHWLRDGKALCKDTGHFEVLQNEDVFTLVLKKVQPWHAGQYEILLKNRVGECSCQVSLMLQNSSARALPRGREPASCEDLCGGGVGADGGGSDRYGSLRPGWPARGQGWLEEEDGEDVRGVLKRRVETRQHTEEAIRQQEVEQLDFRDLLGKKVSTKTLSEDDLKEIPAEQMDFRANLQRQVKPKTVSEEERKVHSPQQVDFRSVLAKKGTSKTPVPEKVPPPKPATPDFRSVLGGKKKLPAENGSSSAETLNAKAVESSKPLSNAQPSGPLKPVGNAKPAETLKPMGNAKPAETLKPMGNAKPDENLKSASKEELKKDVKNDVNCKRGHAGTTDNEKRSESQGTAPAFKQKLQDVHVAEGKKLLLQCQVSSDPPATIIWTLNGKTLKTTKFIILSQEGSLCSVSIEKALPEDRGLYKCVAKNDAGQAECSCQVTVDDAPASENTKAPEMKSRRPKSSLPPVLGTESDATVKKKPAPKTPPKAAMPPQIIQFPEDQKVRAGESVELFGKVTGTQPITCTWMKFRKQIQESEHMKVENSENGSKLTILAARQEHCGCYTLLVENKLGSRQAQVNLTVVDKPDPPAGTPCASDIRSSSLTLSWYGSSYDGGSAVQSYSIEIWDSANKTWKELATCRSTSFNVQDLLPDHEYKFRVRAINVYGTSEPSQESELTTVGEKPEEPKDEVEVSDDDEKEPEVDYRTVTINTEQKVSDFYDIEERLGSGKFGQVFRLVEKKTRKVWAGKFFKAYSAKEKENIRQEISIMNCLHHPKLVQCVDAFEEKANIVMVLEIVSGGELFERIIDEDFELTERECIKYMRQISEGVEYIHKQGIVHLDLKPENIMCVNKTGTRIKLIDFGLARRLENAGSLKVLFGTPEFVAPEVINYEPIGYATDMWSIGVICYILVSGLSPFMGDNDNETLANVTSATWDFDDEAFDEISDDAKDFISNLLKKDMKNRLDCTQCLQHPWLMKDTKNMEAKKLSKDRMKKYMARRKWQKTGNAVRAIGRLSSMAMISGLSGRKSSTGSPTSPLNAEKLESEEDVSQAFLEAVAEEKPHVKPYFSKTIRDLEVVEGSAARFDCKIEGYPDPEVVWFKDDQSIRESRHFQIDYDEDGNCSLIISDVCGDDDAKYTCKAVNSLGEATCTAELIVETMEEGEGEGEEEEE
Chain of Mitogen-activated protein kinase 11 (Homo sapiens) (Q15759 whole entry): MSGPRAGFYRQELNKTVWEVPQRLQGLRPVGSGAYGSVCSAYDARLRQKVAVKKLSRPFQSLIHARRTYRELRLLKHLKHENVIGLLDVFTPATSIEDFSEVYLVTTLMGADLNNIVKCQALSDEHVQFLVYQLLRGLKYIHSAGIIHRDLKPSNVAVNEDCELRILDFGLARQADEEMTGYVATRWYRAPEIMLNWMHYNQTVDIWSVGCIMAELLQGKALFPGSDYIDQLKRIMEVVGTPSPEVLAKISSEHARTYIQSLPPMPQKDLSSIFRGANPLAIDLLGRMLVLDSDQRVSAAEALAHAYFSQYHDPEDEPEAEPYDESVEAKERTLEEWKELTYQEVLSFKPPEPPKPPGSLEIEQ
Chain of RAC-beta serine/threonine-protein kinase (Homo sapiens) (P31751 whole entry): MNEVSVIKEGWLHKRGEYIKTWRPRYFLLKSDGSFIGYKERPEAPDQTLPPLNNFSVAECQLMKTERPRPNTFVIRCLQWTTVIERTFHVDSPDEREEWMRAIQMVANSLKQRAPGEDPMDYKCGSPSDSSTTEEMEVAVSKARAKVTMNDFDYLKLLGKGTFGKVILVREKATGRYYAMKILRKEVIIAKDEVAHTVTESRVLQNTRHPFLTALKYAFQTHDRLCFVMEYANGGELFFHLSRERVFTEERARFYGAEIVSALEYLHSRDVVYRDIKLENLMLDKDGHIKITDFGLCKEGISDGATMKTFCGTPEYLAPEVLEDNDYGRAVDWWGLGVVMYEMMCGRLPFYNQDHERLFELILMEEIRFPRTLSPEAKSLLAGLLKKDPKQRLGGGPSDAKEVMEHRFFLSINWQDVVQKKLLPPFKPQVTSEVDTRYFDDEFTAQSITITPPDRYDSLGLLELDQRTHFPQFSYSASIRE

In the case of `C[C@H](Nc1ncnc2nc[nH]c12)c1cc2cccc(Cl)c2c(=O)n1-c1ccccc1`, the Activity worked out at 92% in assay [1]; 102% in assay [2]; 88.6% in assay [3]; 92.6% in assay [4]; 105% in assay [5]; 103% in [6]. Also, the Activity in assay [7] is 90.9%; in assay [8], 95.8%; in assay [9], 97.2%; in assay [10], 91.7%.
Take `CC[C@H](Nc1ncnc2[nH]cnc12)c1nc2cccc(F)c2c(=O)n1-c1ccccc1`: the Activity in assay [1] was determined as 91.6%; in [2], 97.4%; in assay [3], 83.8%; in [4], 94.8%; in assay [5] it was 96.5%; in assay [6], 107%. Moreover, the Activity was 92.9% in [7], 96.2% in [8], 100% in assay [9] and 96.1% in assay [10].
`CC(C)Oc1ccc(-c2nn([C@@H](C)c3oc4ccc(F)cc4c(=O)c3-c3cccc(F)c3)c3ncnc(N)c23)cc1F` [UMBRALISIB]: the Activity is 90.8% in assay [1]; 104% in assay [2]; 83.1% in assay [3]; 89.3% in assay [4]; 104% in assay [5]; 107% in assay [6]. The Activity came out at 39.9% in assay [7], 92.3% in assay [8], 94.4% in assay [9] and 92.4% in assay [10].
